Test results reported in US6632831B2, “Branched chain amino acid-dependent aminotransferase inhibitors and their use in the treatment of neurodegenerative diseases” (Pfizer Inc., priority 2001, dated 2003).
“And” between values parts separate entries of the source, which are not always exact repeats. Identical values can stand only once.

What was measured:
[1] = molecular target: T1, human Branched Chain Amino Acid Aminotransferase cytosolic form (hBCATc) (Homo sapiens, UniProt P54687); experiment: In vitro coupled enzyme assay, hBCATc; assay type: biochemical; settings: 37° C.; for IC50: 25 mM phosphate buffer pH 7.8, coupled glutamate dehydrogenase assay, read-out: hBCATc I50
T1 construct: inferred from purification on a Ni-charged chelating column with imidazole elution; made in house; host or cells: E. coli BL21(DE3)
T1 sequence (P54687 1-386): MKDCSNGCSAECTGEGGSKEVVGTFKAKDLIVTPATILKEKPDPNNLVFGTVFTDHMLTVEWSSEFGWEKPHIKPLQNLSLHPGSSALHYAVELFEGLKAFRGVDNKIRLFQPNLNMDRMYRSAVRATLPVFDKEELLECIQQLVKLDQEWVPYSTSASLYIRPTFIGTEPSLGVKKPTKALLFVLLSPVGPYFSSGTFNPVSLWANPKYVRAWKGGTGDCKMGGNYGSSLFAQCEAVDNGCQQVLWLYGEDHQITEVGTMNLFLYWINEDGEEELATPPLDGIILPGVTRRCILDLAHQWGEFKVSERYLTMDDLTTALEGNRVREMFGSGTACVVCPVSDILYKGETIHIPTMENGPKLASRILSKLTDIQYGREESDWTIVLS
Description: In vitro enzyme assay—human Branched Chain Amino Acid Aminotransferase cytosolic form (hBCATc) and mitochondrial form (hBCATm) were assayed at 37° C. in 25 mM phosphate buffer pH 7.8. In addition, 2 mM DTT and 12.5 mM EDTA were added to the assay mixture. A coupling enzyme assay was used to monitor the production of glutamate. The formation of NADH from NAD+at […] was followed on a 96-well plate Molecular Devices plate reader. The following components were used in this coupled assay: 4 mM ADP, 1 mM NAD+, 750 μM L-Leucine, 500 μM (α-ketoglutarate, 10 μM pyridoxal phosphate, 1 unit glutamate dehydrogenase, and 1.25 μg of the appropriate BCAT enzyme. Inhibitions by compounds were assayed by adding various concentrations to this coupled assay procedure as a DMSO stock up to a 5% v/v DMSO/buffer ratio. Data is shown in Table 1.
Enzyme Preparation—humanBCATc was expressed in BL21(DE3) cells. A growing culture of cells was induced with 1 mM IPTG at room temperature overnight. These cells were harvested by centrifugation at 10,000 g for 20 minutes. The supernatant was discarded, and the cells were stored at −80° C. until needed. The protein was purified by the following method. The cell paste was resuspended in extraction buffer (0.1 M phosphate, pH 8.0, with 0.01 M Tris-HCL and 5 mM TCEP and then lysed on a French Press at 1000 psi. The lysate was centrifuged at 10,000 g for 15 minutes, and the pellet was discarded. The supernatant was loaded onto a Hitrap Chelating column previously charged with 0.1 M NiSO4 and washed with 3 to 4 column volumes of extraction buffer. The column was then washed with 0.01 Tris, pH 7.5, 10% glycerol, 150 mM NaCl, 5 mM TCEP for two column volumes. The column was then further washed with two column volumes of 0.1 M phosphate, pH 6.0, 0.01 M Tris, 10% glycerol and 750 mM NaCl. Finally, the column was washed with two column volumes of the same buffer plus 50 mM imidazole. The BCAT enzyme was then eluted with the same buffer but with 350 mM imidazole. The eluant was then dialyzed overnight against 10 mM phosphate buffer pH 8.0, 10% glycerol, and 5 mM TCEP. The dialyzed protein was then loaded onto a Q-sepharose column and eluted using a salt gradient. Active fractions were collected and further purified on a Superose-12 column to yield pure BCAT protein.

Compound	melting point	IC50 [1]	hBCATc Inhibit % @ 20 μM ([1]; @ 20 μM compound, pH 7.8 coupled assay)
COC(=O)/C=C1\SC(Nc2c(Cl)cccc2Cl)=NC1=O (hydrate or solvate) [Example 1, [2-(2,6-Dichloro-phenylamino)-4-oxo-4H-thiazol-5-ylidene]-acetic Acid Methyl Ester]	189.1 to 189.7 °C	–	–
CCOC(=O)/C=C1\SC(Nc2c(Cl)cccc2Cl)=NC1=O (hydrate or solvate) [Example 2, [2-(2,6-Dichloro-phenylamino)-4-oxo-4H-thiazol-5-ylidene]-acetic Acid Ethyl Ester]	185 to 185.8 °C	–	–
COC(=O)/C=C1\SC(Nc2ccccc2C)=NC1=O (hydrate or solvate) [Example 4, [2-(2-Methyl-phenylamino)-4-oxo-4H-thiazol-5-ylidene]-acetic Acid Methyl Ester]	200.7 to 201.2 °C	–	–
CNC(=O)/C=C1\SC(Nc2c(Cl)cccc2Cl)=NC1=O (hydrate or solvate) [Example 6, [2-(2,6-Dichloro-phenylamino)-4-oxo-4H-thiazol-5-ylidene]-N-methyl-acetamide]	> 230 °C	–	–
CCCNC(=O)/C=C1\SC(Nc2c(Cl)cccc2Cl)=NC1=O (hydrate or solvate) [Example 8, [2-(2,6-Dichloro-phenylamino)-4-oxo-4H-thiazol-5-ylidene]-N-propyl-acetamide]	> 230 °C	–	–
CONC(=O)/C=C1\SC(Nc2c(Cl)cccc2Cl)=NC1=O (hydrate or solvate) [Example 10, [2-(2,6-Dichloro-phenylamino)-4-oxo-4H-thiazol-5-ylidene]-N-methoxy-acetamide]	204.8 to 205.6 °C	–	–
O=C(/C=C1\SC(Nc2c(Cl)cccc2Cl)=NC1=O)NCc1ccccc1 [Example 9, [2-(2,6-Dichloro-phenylamino)-4-oxo-4H-thiazol-5-ylidene]-N-benzyl-acetamide]	204.8 to 205.6 °C	33 µM and 24 µM	–
COC(=O)/C=C1\SC(Nc2ccc(Cl)cc2Cl)=NC1=O [Example 11, [2-(2,4-Dichloro-phenylamino)-4-oxo-4H-thiazol-5-ylidene]-acetic Acid Methyl Ester]	211.6 to 212.3 °C	30.1 µM	–
COC(=O)/C=C1\SC(Nc2cccc(Cl)c2Cl)=NC1=O [Example 13, [2-(2,3-Dichloro-phenylamino)-4-oxo-4H-thiazol-5-ylidene]-acetic Acid Methyl Ester]	204 to 204.3 °C	18.7 µM	–
N-(1-Benzyl-pyrrolidin-3-yl)-2-[2-(2,6-dichloro-phenylamino)-4-oxo-4H-thiazol-5-ylidene]-N-methyl-acetamide [Example 36]	–	–	Inhibit 29% @ 20 μM

Next, values leading:

melting point	IC50 [1]	hBCATc Inhibit % @ 20 μM ([1]; @ 20 μM compound, pH 7.8 coupled assay)	Compound
> 230 °C	–	–	CC(C)(C)OC(=O)/C=C1\SC(Nc2c(Cl)cccc2Cl)=NC1=O (hydrate or solvate) [Example 3, [2-(2,6-Dichloro-phenylamino)-4-oxo-4H-thiazol-5-ylidene]-acetic Acid Tert-butyl Ester]
> 250 °C	–	–	CCNC(=O)/C=C1\SC(Nc2c(Cl)cccc2Cl)=NC1=O (hydrate or solvate) [Example 7, [2-(2,6-Dichloro-phenylamino)-4-oxo-4H-thiazol-5-ylidene]-N-ethyl-acetamide]
> 230 °C	18.6 µM and 13.1 µM	–	O=C(O)/C=C1\SC(Nc2c(Cl)cccc2Cl)=NC1=O [Example 5, [2-(2,6-Dichloro-phenylamino)-4-oxo-4H-thiazol-5-ylidene]-acetic Acid]
198.8 to 199.4 °C	27.6 µM	–	COC(=O)/C=C1\SC(Nc2cc(Cl)ccc2Cl)=NC1=O [Example 12, [2-(2,5-Dichloro-phenylamino)-4-oxo-4H-thiazol-5-ylidene]-acetic Acid Methyl Ester]
241.3 to 241.7 °C	16.6 µM	–	COC(=O)/C=C1\SC(Nc2c(Cl)cc(Cl)cc2Cl)=NC1=O [Example 14, [2-(2,4,6-Trichloro-phenylamino)-4-oxo-4H-thiazol-5-ylidene]-acetic Acid Methyl Ester]
194 to 194.6 °C	19.5 µM	–	COC(=O)/C=C1\SC(Nc2ccccc2Cl)=NC1=O [Example 15, [2-(2-Chloro-phenylamino)-4-oxo-4H-thiazol-5-ylidene]-acetic Acid Methyl Ester]
